Measured values: patent US20240108602A1, “TREATMENT OF MENTAL DISORDERS” (GH Research Ireland Limited, priority 2022, published 2024)
Read-outs that look alike come from different tables or passages of the source.

What was measured:
[1] = Daily Infant Dosage (DID) and Relative Infant Dose (RID) calculated from breast milk concentrations; conditions: 5 kg infant, three 250 ml feeds
Source text: When determining the potential impact of maternal drug administration on a breastfed infant, it is standard practice to calculate the Relative Infant Dose (RID) (Bennett, P. N., and L. J. Notarianni. “Risk from drugs in breast milk: an analysis by relative dose.” Br J Clin Pharmacol 42.5 (1996): P673-4). The RID is the dosage (in μg/kg/day) the infant is exposed to by the intake of breast milk, divided by the dosage (in μg/kg/day) the mother receives.
Using estimates for daily intake of breast milk and the number of feeds as well as the measured breast milk concentrations the exposure of the infant can be determined.
For example, a published estimate for daily intake of breast milk as a function of infant weight is 150 ml/kg/day. To model the exposure, it is assumed that an infant of 5 kg is fed three times over 24 hours, receiving 250 ml breast milk each time.
Since the amount actually delivered to the patient may be lower than the indicated dose, a calculation of the RID is also carried out assuming that the actually delivered amount is only 50% of the indicated dose so that any a potential underestimation of the infant exposure is avoided.

[2] = Plasma binding of 5-MIAA (unbound fraction); assay type: in vitro ADME
Experimental: Binding to human plasma protein was determined. Reported are the unbound fraction (fu) for three replicates as well as the mean unbound fraction, the standard deviation and the mean % recovery (Table 8).

[3] = system: human hepatocytes; test: Metabolite identification after incubation of 5-MeO-DMT with human hepatocytes; conditions: 5-MeO-DMT free base 10 μM, up to 120 minutes
Experimental: For incubations with cryopreserved hepatocytes, the 2 mM stock solution was diluted with Leibovitz L-15 medium to a concentration of 20 μM or 2 μM. An aliquot (250 μL) of the 20 μM and 2 μM test substance formulations was added to each hepatocyte incubation sample (250 μL), as appropriate, so that the final test substance concentration in the incubations was 10 μM or 1 μM, respectively, and incubations contained less than 1% (v/v) solvent.
Incubations were performed at ca. 37° C. in a shaking water bath (total incubation volume 0.5 mL). For 1 μM, incubations were terminated after 0, 5, 10, 20, 30, 60 and 120 minutes, by the addition of ice-cold acetonitrile (0.5 mL).
The samples were vortex mixed and centrifuged at ca 13,000 rpm for 10 minutes at room temperature. Following centrifugation, the protein-free supernatants were removed for analysis.
Blank control incubations were carried out with Leibovitz L-15 medium in place of the test substance. No cells control samples were performed with Leibovitz L-15 medium in place of hepatocytes. Aliquots of the blank control samples were taken at 120 minutes, while no cells control samples were taken at 0, 30 and 120 for 1 μM incubations and at 0 and 120 minutes for 10 μM incubations.
All 1 μM incubations were performed in duplicate, while all 10 μM incubations were performed in singlet. All samples were stored at −80° C. (nominal) prior to analysis.
Prior to sample analysis a 100 μL aliquot of each sample was evaporated to near dryness under a steady stream of nitrogen at room temperature, and subsequently reconstituted in 50 μL of mobile phase A (0.1% formic acid in water). Each sample (0, 30 and 120-minute, 10 μM) was analysed using accurate mass LC-MS to determine relative levels of parent compound at each time-point, and determine the profile of metabolites formed. Appropriate blank and control samples were also analysed. The 10 and 60-minute, 10 μM incubation samples were not analysed and were stored at −80° C. (nominal).
Data were interrogated for the presence of metabolites by comparison of retention times with the test substance reference standard and based on the accurate masses of potential metabolites using screening software (UNIFI version 1.9.4), and user defined search parameters. To confirm a suspected metabolite, the measured accurate mass of the peak detected in the sample used for structural elucidation had to be within 5 ppm of the theoretical mass in order to confirm the molecular formula.

[4] = 5-MeO-DMT, 5-MIAA and bufotenine in urine, serum and breastmilk of a lactating PPD patient, LC-MS/MS
Experimental: The second patients was lactating, and, per the clinical trial protocol, breastmilk samples were collected pre-dosing and at multiple timepoints after administration of the last dose. […] Similar analyses were carried out on patient serum and urine samples.

[5] = system: human hepatocytes; test: Metabolic stability in Hμrel human hepatocyte co-culture model
[6] = as above; conditions: human, Hμrel HumanPool primary human hepatocyte co-culture
[7] = female, human, breast milk, inhaled

## COc1ccc2[nH]cc(CC(=O)O)c2c1 [5-MIAA, 5-methoxyindole-3-acetic acid]
[1]
  Daily Infant Dosage (DID) of 5-MIAA: 0.006886 mg/day
  Daily Infant Dosage (DID) of 5-MIAA per kg: 0.001377 mg/kg/day
[2]; human
  recovery: 81.4%
[2]; human plasma, read-out: plasma binding (mean fraction unbound)
  fraction unbound: ~0.5
[2]; human, read-out: Mean fu
  fraction unbound: 0.502
[2]; human, read-out: unbound fraction (fu), Replicate 1
  fraction unbound: 0.499
[2]; human, read-out: unbound fraction (fu), Replicate 2
  fraction unbound: 0.462
[2]; human, read-out: unbound fraction (fu), Replicate 3
  fraction unbound: 0.544
[3]
  Relative Proportion of compound after incubation of 5-MeO-DMT: about 60%
[3]; listed as 5-Methoxyindole acetic acid (5-MIAA)
  Relative Proportion of compound after incubation of 5-MeO-DMT: 61%
[4]; 2.5 hours
  urine concentration relative to serum (times higher): approx. 127 times
[4]; 120.0 hrs after last dose
  Breastmilk concentration: BLQ (BLQ: Below limit of quantification. The lower limit of quantification is 25 pg/ml for both 5-MeO-DMT and 5-MIAA in both serum and breastmilk; it is 25 pg/ml in urine for 5-MeO-DMT and 250 pg/ml for 5-MIAA in urine.)
[4]; [7]
  concentration at 2.5 h: 13.2 ng/mL
  concentration at 8.5 h: 0.359 ng/mL
[4]; female, human, urine, inhaled
  concentration at 2.5 h: 13000 ng/mL
[4]; −24.0 hrs (pre-dosing)
  Breastmilk concentration: BLQ (BLQ: Below limit of quantification. The lower limit of quantification is 25 pg/ml for both 5-MeO-DMT and 5-MIAA in both serum and breastmilk; it is 25 pg/ml in urine for 5-MeO-DMT and 250 pg/ml for 5-MIAA in urine.)
[5]; 1 μM Hepatocytes, 0 h
  relative LC/MS peak area: 100%
[5]; 1 μM Hepatocytes, 1 h
  relative LC/MS peak area: 98%
[5]; 1 μM Hepatocytes, 2 h
  relative LC/MS peak area: 100%
[5]; 1 μM Hepatocytes, 4 h
  relative LC/MS peak area: 99%
[5]; 1 μM Hepatocytes, 8 h
  relative LC/MS peak area: 95%
[5]; 1 μM Hepatocytes, 24 h
  relative LC/MS peak area: 99%
[5]; 1 μM Hepatocytes, 48 h
  relative LC/MS peak area: 88%
[5]; 1 μM Hepatocytes, 72 h
  relative LC/MS peak area: 82%
[5]; 1 μM Stromal cells, 0 h
  relative LC/MS peak area: 100%
[5]; 1 μM Stromal cells, 4 h
  relative LC/MS peak area: 103%
[5]; 1 μM Stromal cells, 8 h
  relative LC/MS peak area: 107%
[5]; 1 μM Stromal cells, 24 h
  relative LC/MS peak area: 108%
[5]; 1 μM Stromal cells, 48 h
  relative LC/MS peak area: 111%
[5]; 1 μM Stromal cells, 72 h
  relative LC/MS peak area: 135%
[5]; 10 μM Hepatocytes, 0 h
  relative LC/MS peak area: 100%
[5]; 10 μM Hepatocytes, 1 h
  relative LC/MS peak area: 97%
[5]; 10 μM Hepatocytes, 2 h
  relative LC/MS peak area: 100%
[5]; 10 μM Hepatocytes, 4 h
  relative LC/MS peak area: 103%
[5]; 10 μM Hepatocytes, 8 h
  relative LC/MS peak area: 96%
[5]; 10 μM Hepatocytes, 24 h
  relative LC/MS peak area: 96%
[5]; 10 μM Hepatocytes, 48 h
  relative LC/MS peak area: 86%
[5]; 10 μM Hepatocytes, 72 h
  relative LC/MS peak area: 75%
[5]; 10 μM Stromal cells, 0 h
  relative LC/MS peak area: 100%
[5]; 10 μM Stromal cells, 4 h
  relative LC/MS peak area: 101%
[5]; 10 μM Stromal cells, 8 h
  relative LC/MS peak area: 106%
[5]; 10 μM Stromal cells, 24 h
  relative LC/MS peak area: 97%
[5]; 10 μM Stromal cells, 48 h
  relative LC/MS peak area: 103%
[5]; 10 μM Stromal cells, 72 h
  relative LC/MS peak area: 115%
[5]; human hepatocytes
  metabolic turnover: low metabolic turnover
[5]; human, Hμrel HumanPool primary human hepatocyte co-culture
  predicted hepatic extraction ratio: 2%
[5]; in the presence of hepatocytes, 1 and 10 μM
  remaining abundance after 72 h: 75-82%
[5]; stromal cell controls
  disappearance with stromal cell controls: no disappearance
[6]
  half-life at 1 μM: 10.7 days
  hepatocyte CLint at 1 μM: 0.15 µL/min/1e6 cells
